Holding throughout (format): in vivo
Data set [1] deals with beet. Kind of data set: Test Example 5: effect on crop by foliage application, plastic box (symbol f). The conditions noted are these: 320 g/ha, 3 weeks after application. In short, it runs like this:
(§1)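 Crop seed is sown alongside grass and broadleaf weed species in spots in sterilized diluvial soil, then covered to a depth of about 1.5 cm. Plants grow in a greenhouse kept at 25° C. to 30° C.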

Data set [2] has as its system Monochoria vaginalis. Kind of data set: Test Example 1: herbicidal activity, application before weed generation in submerged conditions (symbol C). The conditions noted are these: application herbicide amount 320 g/ha. In short, it runs like this: (§2)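 Greenhouse growth at 25–30 °C lasted 3 weeks after treatment, when each weed was graded 0–5 by herbicidal ratio. Treatment was a diluted emulsion applied to the water surface of 4 cm-submerged alluvial soil on the sowing day.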

Data set [3] has as its system Lolium multiflorum Lam. Kind of data set: Test Example 5: herbicidal effect by foliage application, plastic box (symbol K). The conditions noted are these: 320 g/ha, 3 weeks after application. In short, it runs like this:
(§3)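 Herbicide, formulated as an emulsion and diluted in water, is sprayed onto the aerial parts of 14-day seedlings. These were grown at 25° C. to 30° C. in sterilized diluvial soil; effects are graded after 3 weeks.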

Data set [4] has as its system Veronica persica. Description: Test Example 4: herbicidal effect by soil treatment (symbol R). To be noted: application herbicide amount 320 g/ha. In outline: (§4)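 Seeds were sown in sterilized diluvial soil, covered with about 1.5 cm of soil, and the soil surface was sprayed with a water-diluted emulsion of the compound at a predetermined rate. Plants grew in a greenhouse at 25° C. to 30° C.; effects were scored visually 3 weeks after application.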

Data set [5] relates to Digitaria ciliaris. Kind of data set: Test Example 4: herbicidal effect by soil treatment (symbol F). The conditions noted are these: application herbicide amount 320 g/ha. In short, it runs like this:
as §4

In data set [6] the test system is corn. Kind of data set: Test Example 5: effect on crop by foliage application, plastic box (symbol c). The conditions noted are these: 320 g/ha, 3 weeks after application. In short, it runs like this: as §1
In data set [7] the test system is Veronica persica. Kind of data set: Test Example 5: herbicidal effect by foliage application, plastic box (symbol R). To be noted: 320 g/ha, 3 weeks after application. In short, it runs like this:
as §3

In data set [8] the test system is Echinochloa oryzacola Vasing. Description: Test Example 1: herbicidal activity, application before weed generation in submerged conditions (symbol A). The conditions noted are these: application herbicide amount 320 g/ha. In outline: as §2
The test system of data set [9] is Echinochloa oryzacola Vasing. Kind of data set: Test Example 2: herbicidal activity, application during weed generation in submerged conditions (symbol A). The conditions noted are these: Table 23; application herbicide amount 320 g/ha; grade 0-5 by criteria of Test Example 1. In short, it runs like this:
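Weeds emerging under flooded conditions were treated with compound formulated as an emulsion and diluted with water to the intended herbicide amount, poured onto the surface of 4 cm standing water. Seeds had been co-sown in alluvial soil; plants grew at 25° C. to 30° C. and were assessed after 3 weeks.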

Data set [10] concerns rapeseed. Description: Test Example 5: effect on crop by foliage application, plastic box (symbol g). To be noted: 320 g/ha, 3 weeks after application. In short, it runs like this: as §1
For data set [11], the system named is Avena fatua. Description: Test Example 5: herbicidal effect by foliage application, plastic box (symbol I). The conditions noted are these: 320 g/ha, 3 weeks after application. In outline:
as §3

Take `CON=C(C)CC1CC(OCOC(=O)c2ccccc2)=C(c2c(C)cc(-c3ccc(Cl)cc3)cc2C)C1=O` (stereo not drawn) [6-083]: the “f: beet, effect on crop (criteria of Test Example 1)” value (“f: beet, effect on crop” for short) in [1] was 3 (Herbicidal ratio of 40% or higher and lower than 70%). Moreover, the “Herbicidal effect grade, C: Monochoria vaginalis” value (“Herbicidal effect grade, C” below) in data set [2] is 4 (Herbicidal ratio of 70% or higher and lower than 90%). Moreover, the “K: Lolium multiflorum Lam., herbicidal effect (criteria of Test Example 1)” value in data set [3] was 4 (Herbicidal ratio of 70% or higher and lower than 90%). The “R: Veronica persica, herbicidal effect grade” value in data set [4] was 3 (Herbicidal ratio of 40% or higher and lower than 70%). For the same compound, the “F: Digitaria ciliaris, herbicidal effect grade” value in data set [5] is given as 5 (Herbicidal ratio of 90% or more (almost completely withered)). Further, the “c: corn, effect on crop (criteria of Test Example 1)” value (“c: corn, effect on crop” for short) in [6] was 5 (Herbicidal ratio of 90% or more (almost completely withered)). The “R: Veronica persica, herbicidal effect (criteria of Test Example 1)” value in data set [7] is 4 (Herbicidal ratio of 70% or higher and lower than 90%). Further, the “Herbicidal effect grade, A: Echinochloa oryzacola Vasing.” value in [8] and in data set [9] was 5 (Herbicidal ratio of 90% or more (almost completely withered)) in each case. The “g: rapeseed, effect on crop (criteria of Test Example 1)” value (“g: rapeseed, effect on crop” below) in data set [10] is 4 (Herbicidal ratio of 70% or higher and lower than 90%). Moreover, in [11], the “I: Avena fatua, herbicidal effect (criteria of Test Example 1)” value (shortened to “I: Avena fatua, herbicidal effect”) is listed as 5 (Herbicidal ratio of 90% or more (almost completely withered)).
On to `CON=C(C)CC1CC(O)=C(c2c(C)cc(-c3ccc(Cl)cc3F)cc2C)C1=O` (stereo not drawn) [6-084], for which the “f: beet, effect on crop” value in data set [1] is recorded as 0 (Herbicidal ratio of 5% or lower (almost no effect)). Moreover, in data set [2], the “Herbicidal effect grade, C” value is on record as 0 (Herbicidal ratio of 5% or lower (almost no effect)). The “K: Lolium multiflorum Lam., herbicidal effect (criteria of Test Example 1)” value in [3] was 5 (Herbicidal ratio of 90% or more (almost completely withered)). Further, the “R: Veronica persica, herbicidal effect grade” value in data set [4] was 4 (Herbicidal ratio of 70% or higher and lower than 90%). Further, the “F: Digitaria ciliaris, herbicidal effect grade” value in data set [5] was 5 (Herbicidal ratio of 90% or more (almost completely withered)). In addition, the “c: corn, effect on crop” value in data set [6] is 0 (Herbicidal ratio of 5% or lower (almost no effect)). The “R: Veronica persica, herbicidal effect (criteria of Test Example 1)” value in data set [7] is 4 (Herbicidal ratio of 70% or higher and lower than 90%). Moreover, the “Herbicidal effect grade, A: Echinochloa oryzacola Vasing.” value in data set [8] was 5 (Herbicidal ratio of 90% or more (almost completely withered)); in [9], 4 (Herbicidal ratio of 70% or higher and lower than 90%). For the same compound, in [10], the “g: rapeseed, effect on crop” value was 4 (Herbicidal ratio of 70% or higher and lower than 90%). For the same compound, the “I: Avena fatua, herbicidal effect” value in data set [11] is listed as 5 (Herbicidal ratio of 90% or more (almost completely withered)).
For `CON=C(C)CC1CC(O)=C(c2c(C)cc(-c3ccc(F)c(Cl)c3)cc2C)C1=O` (stereo not drawn) [6-085], the “f: beet, effect on crop” value in data set [1] is 4 (Herbicidal ratio of 70% or higher and lower than 90%). For the same compound, the “Herbicidal effect grade, C” value in [2] is on record as 0 (Herbicidal ratio of 5% or lower (almost no effect)). Besides, the “K: Lolium multiflorum Lam., herbicidal effect (criteria of Test Example 1)” value in data set [3] is on record as 5 (Herbicidal ratio of 90% or more (almost completely withered)). For the same compound, the “Herbicidal effect grade, R: Veronica persica” value (shortened to “Herbicidal effect grade, R”) in data set [4] is 4 (Herbicidal ratio of 70% or higher and lower than 90%). In addition, the “Herbicidal effect grade, F: Digitaria ciliaris” value (“Herbicidal effect grade, F” for short) in [5] was 5 (Herbicidal ratio of 90% or more (almost completely withered)). Further, the “c: corn, effect on crop” value in data set [6] is 3 (Herbicidal ratio of 40% or higher and lower than 70%). Besides, the “R: Veronica persica, herbicidal effect (criteria of Test Example 1)” value in [7] was 4 (Herbicidal ratio of 70% or higher and lower than 90%). For the same compound, the “Herbicidal effect grade, A: Echinochloa oryzacola Vasing.” value in data set [8] and in data set [9] was 5 (Herbicidal ratio of 90% or more (almost completely withered)) each time. The “g: rapeseed, effect on crop” value in data set [10] is on record as 5 (Herbicidal ratio of 90% or more (almost completely withered)). The “I: Avena fatua, herbicidal effect” value in data set [11] is listed as 5 (Herbicidal ratio of 90% or more (almost completely withered)).
As for `CON=C(C)CC1CC(OC(=O)C(C)CSC)=C(c2c(C)cc(-c3ccc(Cl)cc3)cc2C)C1=O` (stereo not drawn) [6-086], the “f: beet, effect on crop” value in data set [1] was 3 (Herbicidal ratio of 40% or higher and lower than 70%). Further, in [2], the “Herbicidal effect grade, C” value was 0 (Herbicidal ratio of 5% or lower (almost no effect)). For the same compound, in data set [3], the “K: Lolium multiflorum Lam., herbicidal effect (criteria of Test Example 1)” value is recorded as 5 (Herbicidal ratio of 90% or more (almost completely withered)). Further, the “Herbicidal effect grade, R” value in data set [4] is 4 (Herbicidal ratio of 70% or higher and lower than 90%). Moreover, the “Herbicidal effect grade, F” value in data set [5] is 5 (Herbicidal ratio of 90% or more (almost completely withered)). The “c: corn, effect on crop” value in [6] is 3 (Herbicidal ratio of 40% or higher and lower than 70%). Moreover, the “R: Veronica persica, herbicidal effect (criteria of Test Example 1)” value in data set [7] was 5 (Herbicidal ratio of 90% or more (almost completely withered)). Besides, the “Herbicidal effect grade, A: Echinochloa oryzacola Vasing.” value in data set [8] is 5 (Herbicidal ratio of 90% or more (almost completely withered)); in [9], 4 (Herbicidal ratio of 70% or higher and lower than 90%). Also, the “g: rapeseed, effect on crop” value in data set [10] was 4 (Herbicidal ratio of 70% or higher and lower than 90%). Besides, the “I: Avena fatua, herbicidal effect” value in [11] is 5 (Herbicidal ratio of 90% or more (almost completely withered)).
Regarding `CON=C(C)CC1CC(O)=C(c2c(C)cc(-c3cc(Cl)cc(Cl)c3)cc2C)C1=O` (stereo not drawn) [6-087], the “f: beet, effect on crop” value in [1] was 0 (Herbicidal ratio of 5% or lower (almost no effect)). Also, the “Herbicidal effect grade, C” value in data set [2] is recorded as 0 (Herbicidal ratio of 5% or lower (almost no effect)). Further, in [3], the “K: Lolium multiflorum Lam., herbicidal effect (criteria of Test Example 1)” value was 4 (Herbicidal ratio of 70% or higher and lower than 90%). Also, the “Herbicidal effect grade, R” value in [4] is 2 (Herbicidal ratio of 20% or higher and lower than 40%). Also, the “Herbicidal effect grade, F” value in [5] was 5 (Herbicidal ratio of 90% or more (almost completely withered)). In addition, the “c: corn, effect on crop” value in data set [6] is given as 0 (Herbicidal ratio of 5% or lower (almost no effect)). In data set [7], the “R: Veronica persica, herbicidal effect (criteria of Test Example 1)” value is 4 (Herbicidal ratio of 70% or higher and lower than 90%). Also, the “Herbicidal effect grade, A: Echinochloa oryzacola Vasing.” value in [8] is 5 (Herbicidal ratio of 90% or more (almost completely withered)); in data set [9] it was 2 (Herbicidal ratio of 20% or higher and lower than 40%). Further, the “g: rapeseed, effect on crop” value in data set [10] was 4 (Herbicidal ratio of 70% or higher and lower than 90%). Further, in data set [11], the “I: Avena fatua, herbicidal effect” value is 0 (Herbicidal ratio of 5% or lower (almost no effect)).
In the case of `CON=C(C)CC1CC(O)=C(c2c(C)cc(-c3ccc(Cl)cc3Cl)cc2C)C1=O` (stereo not drawn) [6-088], the “f: beet, effect on crop” value in data set [1] is 0 (Herbicidal ratio of 5% or lower (almost no effect)). Also, in data set [2], the “Herbicidal effect grade, C” value is 0 (Herbicidal ratio of 5% or lower (almost no effect)). Moreover, the “K: Lolium multiflorum Lam., herbicidal effect (criteria of Test Example 1)” value in data set [3] is reported as 5 (Herbicidal ratio of 90% or more (almost completely withered)). In addition, the “Herbicidal effect grade, R” value in [4] was 4 (Herbicidal ratio of 70% or higher and lower than 90%). Besides, the “Herbicidal effect grade, F” value in data set [5] is on record as 5 (Herbicidal ratio of 90% or more (almost completely withered)). For the same compound, in [6], the “c: corn, effect on crop” value is 2 (Herbicidal ratio of 20% or higher and lower than 40%). The “R: Veronica persica, herbicidal effect (criteria of Test Example 1)” value in data set [7] is reported as 5 (Herbicidal ratio of 90% or more (almost completely withered)). Also, the “Herbicidal effect grade, A: Echinochloa oryzacola Vasing.” value in data set [8] is 4 (Herbicidal ratio of 70% or higher and lower than 90%); in data set [9], 4 (Herbicidal ratio of 70% or higher and lower than 90%). For the same compound, the “g: rapeseed, effect on crop” value in [10] is 4 (Herbicidal ratio of 70% or higher and lower than 90%). Moreover, the “I: Avena fatua, herbicidal effect” value in data set [11] is listed as 5 (Herbicidal ratio of 90% or more (almost completely withered)).

For the origin of these results see patent US11000033B2, “Ketone or oxime compound, and herbicide” (NISSAN CHEMICAL CORPORATION, priority 2014, dated 2021).
